The test system of the test is lung ILC2s. The test can be described thus: Sort-purified lung ILC2 in vitro cultures with Nmb, IL-5/IL-13 ELISA. In kind it is cell-based, mouse. As to the method:
FIGS. 6A-6E. Nmb suppresses type 2 cytokine responses. (A), Nb-infected mice were treated with PBS or Nmb (i.t.) and ILC2s in the BAL were quantified. (B) Expression of IL-5 and IL-13 in the lungs of PBS or Nmb-treated mice was determined on day 7 post-Nb by Real-time PCR. (C) Eosinophils in the BAL were quantified and (D) worm burdens were determined on day 7 post-Nb infection. ILC2s were sort-purified from the lungs of control or baso-dep mice on day 7 post-Nb and cultured (O/N) with IL-2 and IL-7 in the presence or absence of Nmb and (E) IL-5 and IL-13 levels in culture supernatants were determined by ELISA. P values were determined by two-tailed Student's t-tests.
FIGS. 10A-10B. NMB inhibits type 2 cytokine production from IL-33 activated ILC2. ILC2s were sort-purified from the lungs of Nb-infected mice (day 7) and cultured with survival cytokines (IL-2, IL-7) and in the presence or absence of Nmb and/or IL-33. Following overnight culture, supernatants were tested for the presence of IL-5 (FIG. 10A) and IL-13 (FIG. 10B) by standard ELISA. Statistical comparisons were done using a Student's t-test.
Lung cells were isolated from the lungs of WT or basophil-depleted mice on day 7 post-N. brasiliensis infection. ILC populations (CD45^+Lin^−CD90^+CD127^+) were sort-purified and 10,000 cells were cultured in the presence of 100 ng/mL of IL-2, IL-7 and vehicle (PBS) or 10 μg/mL of Neuromedin B for 24 hours. IL-5 and IL-13 were quantified in cell-free supernatants by ELISA.
These studies illustrate that Nb-induced ILC2 responses are exaggerated in the absence of basophils. […] However, ILC2 responses are also known to be regulated by several other factors following a Nb challenge. Specifically, IL-33 is reported to be a critical regulator of lung ILC2 responses post-Nb infection (24). To address whether altered ILC2 activity in the absence of basophils is a result of reduced availability of IL-33, rather than alterations in NMB-NMBR signaling pathways, ILC2s were sort-purified from the lungs of Nb-infected mice (day 7) and cultured with survival cytokines (IL-2, IL-7) and/or IL-33 and NMB. Following overnight culture, supernatants were tested for the presence of IL-5 and IL-13 by standard ELISA. Statistical comparisons were done using a Student's t-test.
Background: ELISA stands for enzyme-linked immunosorbent assay.

Where [1] appears, read: ILC2s day 7 post-Nb, IL-2 and IL-7, overnight, no IL-33, ELISA.
[2] abbreviates: ILC2s from basophil-deficient Nb-infected mice, overnight with IL-2 and IL-7, ELISA.
[3] abbreviates: ILC2s from basophil-sufficient Nb-infected mice, overnight with IL-2 and IL-7, ELISA.

The source of these data is patent US20260174829A1, “METHODS OF REDUCING TYPE 2 CYTOKINE-MEDIATED INFLAMMATION USING NEUROMEDIN PEPTIDES” (Rutgers, The State University of New Jersey, priority 2018, published 2026).

H2N-GNLWATGHFM-amide [Nmb]: the “type 2 cytokines (IL-5 and IL-13) from IL-33 activated ILC2s” value (ILC2s day 7 post-Nb, IL-2, IL-7 and IL-33, overnight, ELISA) was “significant reductions”. In addition, under setting [1], the “IL-5 production from ILC2s at steady-state” value is “significantly reduce” and the “IL-13 production from ILC2s at steady-state” value is “significantly reduce”. Under setting [2], the “IL-5 production by ILC2s (significantly reduced or not)” value is reported as “not” and the “IL-13 production by ILC2s (significantly reduced or not)” value was “not”. Besides, under setting [3], the “IL-5 production by ILC2s” value is reported as “significantly reduced” and the “IL-13 production by ILC2s” value is on record as “significantly reduced”.
